{"source": "patent US10285972B2", "about": "“Trans-2-nonadecyl-4-hydroxymethyl-1,3-dioxolane and producing methodthereof” (Greenyn Biotechnology Co., Ltd, priority 2014, dated 2019)", "key": {"[1]": {"test_system": "fatty liver and obesity animal model prepared by ethanol-containing diet (Lieber-DeCarli)", "test": "Fatty liver and obesity animal model prepared by ethanol-containing diet (Lieber-DeCarli)", "format": "in vivo", "settings": "FIGS. 9 to 14"}, "[2]": {"test": "Body weight and food intake of mice fed 45% high-fat diet for 8 weeks", "format": "in vivo, C57BL/6 mice", "settings": "for Final wight: mean±SE", "experimental": "(§1) The 4 weeks-old male C57BL/6 mice were divided into 5 groups and treated with different feeding conditions, wherein the group 1 was the blank control fed with normal diet and water, the group 2 was fed with 45% high-fat diet and water, the group 3 was fed with 45% high-fat diet, water and 10 mg/Kg the compound TNHD, the group 4 was fed with 45% high-fat diet, water and 20 mg/Kg the compound TNHD, and the group 5 was fed with 45% high-fat diet, water and 200 mg/Kg Silymarin. Feeding for 8 weeks, and then all the mice were sacrificed.\nAt the end of the experiment, taking photographs of the each group were shown as FIG. 4.\nThe body weight and food intake in the each group were recorded in the table 1, wherein the data is expressed as the mean±SE."}, "[3]": {"test_system": "liver", "test": "Organ weights, liver appearance and liver staining (H&E, Surius red) of mice fed 45% high-fat diet", "format": "in vivo, C57BL/6 mice", "settings": "for Liver weight: 8 weeks", "experimental": "as §1\nThe weights of liver, kidney and spleen of the mice in the each group were measured and recorded in table 2. The macroscopic appearance of the liver from the mice of the each group was shown as FIG. 6. Furthermore, the liver collected from the sacrificed mice in each groups was fixed with formalin. After the fixation, the liver tissue of the each group was paraffin-embedded for histology section and stained by H&E and Surius red for analysis."}}, "data": [{"smiles": "CCCCCCCCCCCCCCCCCCC[C@@H]1OC[C@@H](CO)O1", "note": "(relative stereo) [TNHD, trans-2-nonadecyl-4-hydroxymethyl-1,3-dioxolane]", "values": [{"measurement": "Effect on obesity, fatty liver or liver damage caused by alcohol", "setting": "[1]", "value": "effective to treat or/and prevent obesity, fatty liver or liver damage caused by alcohol"}, {"measurement": "Effect on body weight, high dose compared with low dose", "setting": "[2]; 45% high-fat diet mice, 20 mg/Kg vs 10 mg/Kg", "value": "high dose is more effective"}, {"measurement": "Effect on body weight increase of obesity mouse", "setting": "[2]; 45% high-fat diet mice, 10 or 20 mg/Kg, 8 weeks", "value": "prevent and inhibit the body weight of obesity mouse to increase"}, {"measurement": "Effect on weight loss compared with Silymarin", "setting": "[2]; 45% high-fat diet mice, Silymarin 200 mg/Kg", "value": "more effective to weight loss than Silymarin"}, {"measurement": "Final wight", "setting": "[2]; group 3: 45% high-fat diet + 10 mg/Kg TNHD, 8 weeks", "value": "29.8 ± 2.0", "unit": "g"}, {"measurement": "Final wight", "setting": "[2]; group 4: 45% high-fat diet + 20 mg/Kg TNHD, 8 weeks", "value": "28.1 ± 1.6", "unit": "g"}, {"measurement": "Lipid accumulation in the liver (H&E and Surius red staining)", "setting": "[3]; 45% high-fat diet mice, FIGS. 7 and 8", "value": "inhibit the lipid accumulation in the liver effectively"}, {"measurement": "Liver weight", "setting": "[3]; group 3: 45% high-fat diet + 10 mg/Kg TNHD", "value": "5.23 ± 0.84", "unit": "g"}, {"measurement": "Macroscopic appearance of the liver", "setting": "[3]; group 3 or group 4 (10 or 20 mg/Kg), 45% high-fat diet, FIG. 6", "value": "the liver shows the red color and has smooth surface"}, {"measurement": "Liver weight", "setting": "[3]; group 4: 45% high-fat diet + 20 mg/Kg TNHD", "value": "5.63 ± 0.61", "unit": "g"}]}]}
